The experiment addresses T1, chimeric human H3 receptor (Homo sapiens, UniProt Q9Y5N1, E19D).
T1 construct: made in house; host or cells: Sf9 insect cells (baculovirus infection); P2 membrane preparation
The experiment can be described thus: Chimeric human H3 receptor GTP binding assay (agonist-stimulated GTP-gamma35S binding, Example 7). The format is biochemical. Summed up:
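Sf9 membranes co-expressing the chimeric receptor and heterotrimeric G-protein subunits, 35 μg protein per tube, in pH 7.4 Tris buffer with 10 μM GDP. Test compounds at 10^−10 to 10^−6 M with 1 μM histamine, 60 min at room temperature. Filter-bound GTP-gamma^35S read by scintillation; IC50 from non-linear regression of dose-response curves.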

[1] abbreviates: Table II, assay of Example 7, "*" in Ki, read-out: Ki.
Where [2] appears, read: assay of Example 7, "*" in Ki of Table II, read-out: Ki.
[3] abbreviates: Table II "Ki", symbol "*": Ki in the assay of Example 7, read-out: Ki.
The mark [4] stands for this setting: Table II, "*" in Ki, assay of Example 7, read-out: Ki.
The mark [5] stands for this setting: assay of Example 7, symbol * in column headed Ki of Table II, read-out: Ki.

Where two headings read alike, the source gives them in different places. A value given as a limit tells only on which side of the number the result lay.

T1 sequence (Q9Y5N1 with tags, fused parts or gaps E19D): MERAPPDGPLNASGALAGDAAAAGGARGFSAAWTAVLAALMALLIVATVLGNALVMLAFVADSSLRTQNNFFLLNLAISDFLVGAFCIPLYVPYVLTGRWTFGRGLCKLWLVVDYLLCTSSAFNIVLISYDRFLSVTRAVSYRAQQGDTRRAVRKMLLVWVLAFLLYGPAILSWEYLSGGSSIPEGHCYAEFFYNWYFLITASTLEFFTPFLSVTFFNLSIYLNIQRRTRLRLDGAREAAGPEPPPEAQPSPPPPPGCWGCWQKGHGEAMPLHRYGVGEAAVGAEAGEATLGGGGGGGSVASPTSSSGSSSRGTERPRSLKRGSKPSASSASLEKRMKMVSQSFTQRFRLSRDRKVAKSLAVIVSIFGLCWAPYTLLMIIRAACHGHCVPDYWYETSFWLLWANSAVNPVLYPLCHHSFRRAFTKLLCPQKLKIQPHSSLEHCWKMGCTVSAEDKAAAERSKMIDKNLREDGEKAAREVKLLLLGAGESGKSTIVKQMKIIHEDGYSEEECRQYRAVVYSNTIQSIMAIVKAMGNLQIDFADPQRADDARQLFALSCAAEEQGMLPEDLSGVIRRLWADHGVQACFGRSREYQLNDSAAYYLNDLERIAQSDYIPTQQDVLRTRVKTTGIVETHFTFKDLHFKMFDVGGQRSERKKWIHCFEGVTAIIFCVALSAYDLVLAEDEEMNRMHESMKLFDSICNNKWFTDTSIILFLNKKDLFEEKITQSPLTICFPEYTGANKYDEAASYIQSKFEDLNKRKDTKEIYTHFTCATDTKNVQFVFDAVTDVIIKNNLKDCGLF

On to `O=C(CN1CCN(c2cnc(-c3cc(Cl)ccc3Cl)cn2)CC1)N1CCN(C2CCC2)CC1` [Compound 973, 2-{4-[2-(4-cyclobutylpiperazin-1-yl)-2-oxoethyl]piperazin-1-yl}-5-(2,5-dichlorophenyl)pyrazine], for which the Ki under setting [1] was < 1000 nM.

Take `O=C(NC1CCCC1)c1ccc(N2CCN(CC(=O)N3CCN(C4CCC4)CC3)CC2)cc1` [Compound 1141, 4-{4-[2-(4-cyclobutylpiperazin-1-yl)-2-oxoethyl]piperazin-1-yl}-N-cyclopentylbenzamide]: under setting [2], the Ki was < 1000 nM. Regarding `O=C(CN1CCN(c2ccc(F)cc2)CC1)N1CCN(C2CCCCC2)CC1` [Compound 822, 1-cyclohexyl-4-{[4-(4-fluorophenyl)piperazin-1-yl]acetyl}piperazine], the Ki under setting [3] is < 1000 nM. For the molecule `O=C(NC1CCCCCC1)c1cccc(N2CCN(CC(=O)N3CCN(C4CCC4)CC3)CC2)c1` [Compound 1083, 3-{4-[2-(4-cyclobutylpiperazin-1-yl)-2-oxoethyl]piperazin-1-yl}-N-cycloheptylbenzamide], under setting [1], the Ki was < 1000 nM. For the molecule `O=C(CN1CCN(c2cccc(Cl)c2Cl)CC1)N1CCN(C2CCC2)CC1` [Compound 666, 1-cyclobutyl-4-{[4-(2,3-dichlorophenyl)piperazin-1-yl]acetyl}piperazine], the Ki under setting [4] was < 1000 nM. Take `CCC(C)N1CCN(C(=O)CN2CCN(c3cc(Cl)ccc3C)CC2)CC1` (stereo not drawn) [Compound 885, 1-sec-butyl-4-{[4-(5-chloro-2-methylphenyl)piperazin-1-yl]acetyl}piperazine]: the Ki under setting [3] is < 1000 nM. With `CC(C)CN1CCN(C(=O)CN2CCN(c3ccc4c(c3)COC4=O)CC2)CC1` [Compound 1161, 5-{4-[2-(4-isobutylpiperazin-1-yl)-2-oxoethyl]piperazin-1-yl}-2-benzofuran-1(3H)-one], the inhibition constant (Ki) under setting [2] was < 1000 nM. With `CC(C)(C)CNC(=O)c1ccc(N2CCN(CC(=O)N3CCN(C4CCC4)CC3)CC2)nc1` [Compound 1187, 6-{4-[2-(4-cyclobutylpiperazin-1-yl)-2-oxoethyl]piperazin-1-yl}-N-(2,2-dimethylpropyl) nicotinamide], the Ki under setting [2] is < 1000 nM. As to `Cc1noc(-c2ccc(N3CCN(CC(=O)N4CCN(C5CCC5)CC4)CC3)cc2)n1` [Compound 594, 1-cyclobutyl-4-({4-[4-(3-methyl-1,2,4-oxadiazol-5-yl)phenyl]piperazin-1-yl}acetyl)piperazine], under setting [4], the Ki is < 1000 nM.

As to `N#Cc1ccc(-c2cnc(N3CCN(CC(=O)N4CCN(C5CCC5)CC4)CC3)cn2)cc1` [Compound 1098, 4-(5-{4-[2-(4-cyclobutylpiperazin-1-yl)-2-oxoethyl]piperazin-1-yl}pyrazin-2-yl)benzonitrile], under setting [1], the Ki was < 1000 nM. For the molecule `O=C(CN1CCN(c2ccccc2)CC1)N1CCN(C2CCC2)CC1` [Compound 657, 1-cyclobutyl-4-[(4-phenylpiperazin-1-yl)acetyl]piperazine], under setting [4], the Ki is < 1000 nM. As for `CCN(CC)C1CCN(CC(=O)N2CCN(C(C)C)CC2)C1` (stereo not drawn) [Compound 1206, N,N-diethyl-1-[2-(4-isopropylpiperazin-1-yl)-2-oxoethyl]pyrrolidin-3-amine], the inhibition constant (Ki) under setting [2] was < 1000 nM. Turning to `O=C(CN1CCN(c2cccc(F)c2)CC1)N1CCN(C2CCCCC2)CC1` [Compound 819, 1-cyclohexyl-4-{[4-(3-fluorophenyl)piperazin-1-yl]acetyl}piperazine], under setting [3], the Ki is < 1000 nM. In the case of `O=C(CN1CCN(c2ccc(C(=O)N3CC=CCC3)cc2)CC1)N1CCN(C2CCC2)CC1` [Compound 593, 1-cyclobutyl-4-({4-[4-(3,6-dihydropyridin-1(2H)-ylcarbonyl)phenyl]piperazin-1-yl}acetyl)piperazine], the Ki under setting [4] was < 1000 nM. Regarding `O=C(CN1CCN(c2ccc(-c3cccc(F)c3F)cc2)CC1)N1CCN(C2CCC2)CC1` [Compound 667, 1-cyclobutyl-4-{[4-(2′,3′-difluorobiphenyl-4-yl)piperazin-1-yl]acetyl}piperazine], the Ki under setting [4] is < 1000 nM. `Cc1ccc(F)c(-c2ccc(N3CCN(CC(=O)N4CCN(C5CCC5)CC4)CC3)nn2)c1` [Compound 1008, 3-{4-[2-(4-cyclobutylpiperazin-1-yl)-2-oxoethyl]piperazin-1-yl}-6-(2-fluoro-5-methylphenyl)pyridazine]: under setting [1], the Ki is < 1000 nM. Regarding `CCN(C(=O)c1ccc(N2CCN(CC(=O)N3CCN(C4CCC4)CC3)CC2)cc1)C1CCCCC1` [Compound 1129, 4-{4-[2-(4-cyclobutylpiperazin-1-yl)-2-oxoethyl]piperazin-1-yl}-N-cyclohexyl-N-ethylbenzamide], under setting [1], the inhibition constant (Ki) was < 1000 nM. For the molecule `O=C(CN1CCN(c2cnc(-c3cccc(OC(F)(F)F)c3)cn2)CC1)N1CCN(C2CCC2)CC1` [Compound 937, 2-{4-[2-(4-cyclobutylpiperazin-1-yl)-2-oxoethyl]piperazin-1-yl}-5-[3-(trifluoromethoxy)phenyl] pyrazine], the Ki under setting [3] is < 1000 nM. The same measure, in the same setting: next, `O=C(CN1CCN(c2cnc(-c3ccccc3Cl)cn2)CC1)N1CCN(C2CCC2)CC1` [Compound 898, 2-(2-chlorophenyl)-5-{4-[2-(4-cyclobutylpiperazin-1-yl)-2-oxoethyl]piperazin-1-yl}pyrazine]: < 1000 nM.

On to `O=C(CN1CCC(N2CCCCC2)CC1)N1CCN(C2CCC2)CC1` [Compound 421, 1′-[2-(4-cyclobutylpiperazin-1-yl)-2-oxoethyl]-1,4′-bipiperidine], for which, under setting [5], the Ki is < 1000 nM.

Take `CC(C)Oc1cccc(-c2ccc(N3CCN(CC(=O)N4CCN(C5CCC5)CC4)CC3)nn2)c1` [Compound 1030, 3-{4-[2-(4-cyclobutylpiperazin-1-yl)-2-oxoethyl]piperazin-1-yl}-6-(3-isopropoxyphenyl) pyridazine]: the Ki under setting [1] is < 1000 nM. `O=C(CN1CCN(c2ccc(-c3ccccc3Oc3ccccc3)cc2)CC1)N1CCN(C2CCC2)CC1` [Compound 719, 1-cyclobutyl-4-{[4-(2′-phenoxybiphenyl-4-yl)piperazin-1-yl]acetyl}piperazine]: the inhibitory constant (Ki) under setting [4] was < 1000 nM. For `CCC(C)N1CCN(C(=O)CN2CCN(c3ccc(OC)cc3)C(C)C2)CC1` (stereo not drawn) [Compound 1113, 4-[2-(4-sec-butylpiperazin-1-yl)-2-oxoethyl]-1-(4-methoxyphenyl)-2-methylpiperazine], under setting [1], the Ki was < 1000 nM.

In the case of “N-{1-[2-(4- cyclobutylpiperazin-1-yl)- 2-oxoethyl]piperldin-4-yl}- 2-naphthamide [Compound 1207]”, under setting [2], the Ki was < 1000 nM.

Regarding `CC1CCCCN1C(=O)c1ccc(N2CCN(CC(=O)N3CCN(C4CCC4)CC3)CC2)nc1` (stereo not drawn) [Compound 651, 1-cyclobutyl-4-[(4-{5-[(2-methylpiperidin-1-yl)carbonyl]pyridin-2-yl}piperazin-1-yl)acetyl]piperazine], the Ki under setting [4] was < 1000 nM. Consider `COc1ccc(Cl)cc1-c1ccc(N2CCN(CC(=O)N3CCN(C4CCC4)CC3)CC2)cc1` [Compound 365, 1-(5′-chloro-2′-methoxybiphenyl-4-yl)-4-[2-(4-cyclobutylpiperazin-1-yl)-2-oxoethyl]piperazine], for which the Ki under setting [5] was < 1000 nM.

`CCC(C)N1CCN(C(=O)CN2CCN(c3cccc(Cl)c3Cl)CC2)CC1` (stereo not drawn) [Compound 859, 1-sec-butyl-4-{[4-(2,3-dichlorophenyl)piperazin-1-yl]acetyl}piperazine]: the Ki under setting [3] is < 1000 nM. Take `O=C(CN1CCN(c2cccc(C(F)(F)F)c2)CC1)N1CCN(C2CCC2)CC1` [Compound 590, 1-cyclobutyl-4-({4-[3-(trifluoromethyl)phenyl]piperazin-1-yl}acetyl)piperazine]: the Ki is < 1000 nM.

As for `Cc1cc(N2CCN(CC(=O)N3CCN(C4CCCCC4)CC3)CC2)ccc1Cl` [Compound 350, 1-(4-chloro-3-methylphenyl)-4-[2-(4-cyclohexylpiperazin-1-yl)-2-oxoethyl]piperazine], the inhibition constant Ki under setting [5] is < 1000 nM. Regarding `CCC(CC)CNC(=O)c1cccc(N2CCN(CC(=O)N3CCN(C4CCC4)CC3)CC2)c1` [Compound 1086, 3-{4-[2-(4-cyclobutylpiperazin-1-yl)-2-oxoethyl]piperazin-1-yl}-N-(2-ethylbutyl)benzamide], the Ki under setting [1] is < 1000 nM.

For `CC(C)N1CCN(C(=O)CN2CCN(c3cccc(Cl)c3)CC2)CC1` [Compound 302, 1-(3-chlorophenyl)-4-[2-(4-isopropylpiperazin-1-yl)-2-oxoethyl]piperazine], under setting [5], the Ki is < 1000 nM. Take `CN(C)c1ccc(-c2cnc(N3CCN(CC(=O)N4CCN(C5CCC5)CC4)CC3)cn2)cc1` [Compound 1097, 4-(5-{4-[2-(4-cyclobutylpiperazin-1-yl)-2-oxoethyl]piperazin-1-yl}pyrazin-2-yl)-N,N-dimethylaniline]: the inhibition constant Ki under setting [1] was < 1000 nM.

With `CCOc1ccccc1-c1ccc(N2CCN(CC(=O)N3CCN(C4CCC4)CC3)CC2)nn1` [Compound 1043, 3-{4-[2-(4-cyclobutylpiperazin-1-yl)-2-oxoethyl]piperazin-1-yl}-6-(2-ethoxyphenyl)pyridazine], the Ki under setting [1] was < 1000 nM. The same measure, in the same setting: next, `COc1cc(-c2cnc(N3CCN(CC(=O)N4CCN(C5CCC5)CC4)CC3)cn2)cc(OC)c1OC` [Compound 943, 2-{4-[2-(4-cyclobutylpiperazin-1-yl)-2-oxoethyl]piperazin-1-yl}-5-(3,4,5-trimethoxyphenyl)pyrazine]: < 1000 nM. With `O=C(CN1CCN(c2ccc3c(c2)OCO3)CC1)N1CCN(C2CCCC2)CC1` [Compound 257, 1-(1,3-benzodioxol-5-yl)-4-[2-(4-cyclopentylpiperazin-1-yl)-2-oxoethyl]piperazine], the inhibition constant Ki is < 1000 nM. In the case of `CC(C)Oc1cccc(-c2cnc(N3CCN(CC(=O)N4CCN(C5CCC5)CC4)CC3)cn2)c1` [Compound 942, 2-{4-[2-(4-cyclobutylpiperazin-1-yl)-2-oxoethyl]piperazin-1-yl}-5-(3-isopropoxyphenyl) pyrazine], the Ki under setting [1] was < 1000 nM.

These data come from US7851474B2, “Dipiperazinyl ketones and related analogues” (Neurogen Corporation, priority 2005, dated 2010).
